Source: PubChem BioAssay AID302 (DTP/NCI, 2004)
Values joined by “and” are separate entries in the source; they are usually repeats but may differ in a detail not shown here. Equal entries are not always repeated. Inconclusive results and toxic doses are left out. The calls were made as follows: active = survival T/C of 150% or more; inactive = T/C below 125% in these data.

Tested on: BALB/c mice, Madison 109 lung carcinoma i.m., survival
Experiment: NCI In Vivo Anticancer Drug Screen. Data for tumor model Madison 109 Lung Carcinoma (intramuscular) in BALB/CM mice
Settings: endpoint: median survival time, higher = longer survival
Experimental: The antitumor activity of compounds was measured in mice bearing transplantable tumors. Survival or tumor size were measured and the results are expressed as the measurement made in the treated group (T) divided by the measurement made in the vehicle treated control group (C). The tumor model used in this assay is Madison 109 Lung Carcinoma (intramuscular) in BALB/CM mice

[1] = dose: 12.5 mg/kg/injection, schedule: Q01DX009 (ip), vehicle: saline with Tween-80
[2] = dose: 25.0 mg/kg/injection, schedule: Q01DX009 (ip), vehicle: saline with Tween-80
[3] = dose: 50.0 mg/kg/injection, schedule: Q01DX009 (ip), vehicle: saline with Tween-80
[4] = dose: 0.12 mg/kg/injection, schedule: Q01DX009 (ip), vehicle: saline
[5] = dose: 32.0 mg/kg/injection, schedule: Q01DX009 (ip), vehicle: saline with Tween-80
[6] = dose: 64.0 mg/kg/injection, schedule: Q01DX009 (ip), vehicle: saline with Tween-80
[7] = dose: 128.0 mg/kg/injection, schedule: Q01DX009 (ip), vehicle: saline with Tween-80
[8] = dose: 256.0 mg/kg/injection, schedule: Q01DX009 (ip), vehicle: saline with Tween-80
[9] = dose: 512.0 mg/kg/injection, schedule: Q01DX009 (ip), vehicle: saline with Tween-80
[10] = dose: 100.0 mg/kg/injection, schedule: Q01DX009 (ip), vehicle: saline with Tween-80
[11] = dose: 200.0 mg/kg/injection, schedule: Q01DX009 (ip), vehicle: saline with Tween-80
[12] = dose: 400.0 mg/kg/injection, schedule: Q01DX009 (ip), vehicle: saline with Tween-80
[13] = dose: 32.0 mg/kg/injection, schedule: Q01DX009 (ip), vehicle: saline
[14] = dose: 64.0 mg/kg/injection, schedule: Q01DX009 (ip), vehicle: saline

Measured: T/C

CN(CO)c1nc(N(C)CO)nc(N(C)CO)n1
inactive: dose: 1.56 mg/kg/injection, schedule: Q01DX009 (ip), vehicle: saline with Tween-80 94 % of control and 101 % of control | dose: 3.12 mg/kg/injection, schedule: Q01DX009 (ip), vehicle: saline with Tween-80 100 % of control and 112 % of control | dose: 6.25 mg/kg/injection, schedule: Q01DX009 (ip), vehicle: saline with Tween-80 100 % of control and 120 % of control | [1] 107 % of control and 114 % of control | [2] 104 % of control and 108 % of control | [3] 120 % of control

COC1C(O)CC(OC2CC(Oc3cc4cc5c(c(O)c4c(O)c3C)C(=O)[C@@H](OC3CC(OC4CC(OC6CC(C)(O)C(OC(C)=O)C(C)O6)C(O)C(C)O4)C(O)C(C)O3)[C@H]([C@H](OC)C(=O)[C@@H](O)[C@@H](C)O)C5)OC(C)C2OC(C)=O)OC1C (some centres not stated)
inactive: dose: 0.01 mg/kg/injection, schedule: Q01DX009 (ip), vehicle: saline 100 % of control | dose: 0.03 mg/kg/injection, schedule: Q01DX009 (ip), vehicle: saline 102 % of control | dose: 0.06 mg/kg/injection, schedule: Q01DX009 (ip), vehicle: saline 105 % of control | [4] 95 % of control

Nc1ccnc(=O)[nH]1
inactive: [5] 111 % of control and 115 % of control | [6] 98 % of control and 105 % of control | [7] 104 % of control and 105 % of control | [8] 93 % of control and 105 % of control | [9] 115 % of control and 117 % of control

CN(C)c1nc(N(C)C)nc(N(C)C)n1
inactive: [1] 104 % of control | [2] 90 % of control and 103 % of control | [3] 97 % of control and 102 % of control | [10] 99 % of control

O=C(O)CCCc1ccc(N(CCCl)CCCl)cc1
inactive: dose: 1.5 mg/kg/injection, schedule: Q01DX009 (ip), vehicle: saline with Tween-80 103 % of control | dose: 3.0 mg/kg/injection, schedule: Q01DX009 (ip), vehicle: saline with Tween-80 101 % of control | dose: 6.0 mg/kg/injection, schedule: Q01DX009 (ip), vehicle: saline with Tween-80 88 % of control

Cc1cn(C2CC(O)C(CO)O2)c(=O)[nH]c1=O (configuration not stated)
inactive: [5] 94 % of control and 101 % of control | [6] 103 % of control and 108 % of control | [10] 108 % of control and 112 % of control | [7] 102 % of control and 105 % of control | [11] 100 % of control and 102 % of control | [8] 95 % of control and 97 % of control | [12] 101 % of control and 103 % of control | [9] 102 % of control and 103 % of control | dose: 800.0 mg/kg/injection, schedule: Q01DX009 (ip), vehicle: saline with Tween-80 106 % of control and 107 % of control | dose: 1600.0 mg/kg/injection, schedule: Q01DX009 (ip), vehicle: saline with Tween-80 96 % of control and 99 % of control

CCOC(=O)NC1=C(N2CC2)C(=O)C(NC(=O)OCC)=C(N2CC2)C1=O
inactive: dose: 0.12 mg/kg/injection, schedule: Q01DX009 (ip), vehicle: saline with Tween-80 99 % of control and 102 % of control and 111 % of control | dose: 0.25 mg/kg/injection, schedule: Q01DX009 (ip), vehicle: saline with Tween-80 105 % of control and 111 % of control | dose: 0.5 mg/kg/injection, schedule: Q01DX009 (ip), vehicle: saline with Tween-80 103 % of control and 105 % of control

O=C1C=CC(=O)O1 (tested in a mixture with another compound)
inactive: dose: 12.5 mg/kg/injection, schedule: Q01DX009 (ip), vehicle: saline 113 % of control | dose: 25.0 mg/kg/injection, schedule: Q01DX009 (ip), vehicle: saline 110 % of control | dose: 50.0 mg/kg/injection, schedule: Q01DX009 (ip), vehicle: saline 104 % of control | dose: 100.0 mg/kg/injection, schedule: Q01DX009 (ip), vehicle: saline 110 % of control

CC1=C(/C=C/C(C)=C/C=C/C(C)=C/CO)C(C)(C)CCC1
inactive: dose: 2.0 mg/kg/injection, schedule: Q01DX009 (ip), vehicle: saline 100 % of control | dose: 4.0 mg/kg/injection, schedule: Q01DX009 (ip), vehicle: saline 100 % of control | dose: 8.0 mg/kg/injection, schedule: Q01DX009 (ip), vehicle: saline 115 % of control | dose: 16.0 mg/kg/injection, schedule: Q01DX009 (ip), vehicle: saline 100 % of control | [13] 98 % of control | [14] 111 % of control

O=c1ccn(C2OC(CO)C(O)C2O)c(=O)[nH]1 (configuration not stated)
inactive: [13] 111 % of control | [14] 99 % of control | dose: 128.0 mg/kg/injection, schedule: Q01DX009 (ip), vehicle: saline 93 % of control | dose: 256.0 mg/kg/injection, schedule: Q01DX009 (ip), vehicle: saline 104 % of control | dose: 512.0 mg/kg/injection, schedule: Q01DX009 (ip), vehicle: saline 98 % of control

CCOC(=O)C(C)(C)Oc1ccc(Cl)cc1
inactive: [3] 112 % of control | [10] 109 % of control | [11] 116 % of control | [12] 109 % of control

CC(C)CC(NC(=O)C(O)C(N)Cc1ccccc1)C(=O)O (configuration not stated)
inactive: dose: 10.0 micrograms/kg/injection, schedule: Q01DX005 (ip), vehicle: saline 101 % of control

COc1cccc2c1C(=O)c1c(O)c3c(c(O)c1C2=O)C[C@@](O)(C(=O)CO)C[C@@H]3OC1CC(N)C(O)C(C)O1 (some centres not stated)
inactive: [4] 110 % of control | dose: 0.12 mg/kg/injection, schedule: Q01DX009 (ip), vehicle: water 122 % of control | dose: 0.25 mg/kg/injection, schedule: Q01DX009 (ip), vehicle: saline 114 % of control | dose: 0.5 mg/kg/injection, schedule: Q01DX009 (ip), vehicle: saline 112 % of control and 116 % of control | dose: 0.5 mg/kg/injection, schedule: Q01DX009 (ip), vehicle: water 119 % of control | dose: 1.0 mg/kg/injection, schedule: Q01DX009 (ip), vehicle: saline 94 % of control and 111 % of control | dose: 1.0 mg/kg/injection, schedule: Q01DX009 (ip), vehicle: water 115 % of control | dose: 10.0 micrograms/mouse/injection, schedule: Q01DX005 (ip), vehicle: saline 96 % of control | dose: 20.0 micrograms/kg/injection, schedule: Q01DX005 (ip), vehicle: saline 123 % of control | dose: 20.0 micrograms/mouse/injection, schedule: Q01DX005 (ip), vehicle: saline 102 % of control | dose: 40.0 micrograms/kg/injection, schedule: Q01DX005 (ip), vehicle: saline 115 % of control | dose: 40.0 micrograms/mouse/injection, schedule: Q01DX005 (ip), vehicle: saline 105 % of control

CC(=O)Nc1ccc(/C=N/NC(N)=S)cc1
inactive: [2] 106 % of control and 108 % of control | [3] 94 % of control and 108 % of control | [10] 92 % of control and 124 % of control | [11] 89 % of control | [12] 113 % of control and 114 % of control

O=[N+]([O-])c1ccc(Cl)c([N+](=O)[O-])c1
inactive: dose: 5.0 mg/kg/injection, schedule: Q01DX009 (ip), vehicle: saline with Tween-80 102 % of control | dose: 6.25 mg/kg/injection, schedule: Q02DX009 (ip), vehicle: water 117 % of control | dose: 10.0 mg/kg/injection, schedule: Q01DX009 (ip), vehicle: saline with Tween-80 100 % of control | dose: 12.5 mg/kg/injection, schedule: Q02DX009 (ip), vehicle: water 113 % of control | dose: 20.0 mg/kg/injection, schedule: Q01DX009 (ip), vehicle: saline with Tween-80 93 % of control | dose: 25.0 mg/kg/injection, schedule: Q02DX009 (ip), vehicle: water 113 % of control | dose: 40.0 mg/kg/injection, schedule: Q01DX009 (ip), vehicle: saline with Tween-80 105 % of control | dose: 50.0 mg/kg/injection, schedule: Q02DX009 (ip), vehicle: water 107 % of control | dose: 80.0 mg/kg/injection, schedule: Q01DX009 (ip), vehicle: saline with Tween-80 111 % of control | dose: 100.0 mg/kg/injection, schedule: Q02DX009 (ip), vehicle: water 107 % of control
